The molecules below were run against T1, Human CXCR3 (N-delta 4) (Homo sapiens, UniProt P49682) (assay: Human CXCR3 (N-delta 4) scintillation proximity assay (SPA), [125I] IP-10 binding to Ba/F3-hCXCR3 membranes). Conditions: IC50 rating; 25 pM [125I] IP-10, membranes of Ba/F3 cells expressing human CXCR3 (N-delta 4).
T1 construct: CD8 leader (N); Flag tag; expressed in transfected cells; membranes prepared
T1 sequence (P49682 5-368 limits assumed): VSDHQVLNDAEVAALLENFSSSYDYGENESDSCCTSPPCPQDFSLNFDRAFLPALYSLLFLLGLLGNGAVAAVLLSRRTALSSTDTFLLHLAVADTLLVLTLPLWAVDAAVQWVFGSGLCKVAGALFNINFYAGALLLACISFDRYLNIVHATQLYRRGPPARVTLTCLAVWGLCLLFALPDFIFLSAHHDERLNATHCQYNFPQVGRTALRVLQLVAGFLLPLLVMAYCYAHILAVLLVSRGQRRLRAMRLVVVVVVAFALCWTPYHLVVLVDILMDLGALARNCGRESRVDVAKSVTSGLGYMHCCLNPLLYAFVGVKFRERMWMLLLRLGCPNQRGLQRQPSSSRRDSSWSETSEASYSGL
Procedure, shortened: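 Membranes from Ba/F3 pro-B cells stably expressing Flag-tagged hCXCR3 (N-delta 4), 2 μg per point, prebound 1 hr to WGA SPA beads in HEPES buffer with CaCl2, MgCl2, NaCl, 1.0% BSA. Competition with 25 pM [125I] IP-10 and titrated compounds, 3 hr at room temperature; bound radioligand counted; […].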

Row | IC50 [nM] | Structure (SMILES)
1 | 25 to 100 | CC[C@H]1CN(c2nc(N)c(C(N)=O)nc2Cl)CCN1C1CCN(C2OC(C(=O)N(C)C)c3cc(Cl)ccc32)CC1 (some centres unmarked) [compound 151]
2 | > 100 | CC[C@H]1CN(c2nc(N)c(C(N)=O)nc2Cl)CCN1C1CCN(C(=O)c2ccc(Cl)c3cc[nH]c23)CC1 [compound 152]
3 | > 100 | CC[C@H]1CN(c2nc(N)c(C(N)=O)nc2Cl)CCN1C1CCN(Cc2ccc(Cl)c3nn[nH]c23)CC1 [compound 153]
4 | < 25 | CC[C@H]1CN(c2ncc(C(=O)NC3CC3)nc2C)[C@H](C)CN1C1CCN(C(=O)c2ccc(Cl)nc2N)CC1 [compound 159]
5 | < 25 | CCNC(=O)c1cnc(N2C[C@H](CC)N(C3CCN(C(=O)c4ccc(Cl)nc4N)CC3)C[C@H]2C)c(C)n1 [compound 160]
6 | < 25 | CC[C@H]1CN(c2ncc(C(=O)OC)nc2C)CCN1C1CCN(C(=O)c2ccc(Cl)nc2N)CC1 [compound 161]
7 | < 25 | CC[C@H]1CN(c2nc(N)c(C(N)=O)nc2C)CCN1C1CCN(C(=O)c2ccc(Cl)nc2N)CC1 [compound 162]
8 | < 25 | CC[C@H]1CN(c2ncc(C(=O)NC)nc2C)[C@H](C)CN1C1CCN(C(=O)c2ccc(Cl)nc2N)CC1 [compound 163]
9 | < 25 | CC[C@H]1CN(c2ncc(C(=O)OC)nc2C)[C@H](C)CN1C1CCN(C(=O)c2ccc(Cl)nc2N)CC1 [compound 164]
10 | 25 to 100 | CC[C@H]1CN(c2ncc(C(N)=O)nc2C)CCN1C1CCN(C(=O)c2ccc(C(F)(F)F)nc2N)CC1 [compound 165]
11 | < 25 | CC[C@H]1CN(c2nc(N)c(C(N)=O)nc2Cl)[C@H](C)CN1C1CCN(C(=O)c2ccc(Cl)nc2N)CC1 [compound 167]
12 | < 25 | CC[C@H]1CN(c2ncc(C(=O)NC(C)(C)C)nc2C)CCN1C1CCN(C(=O)c2ccc(Cl)nc2N)CC1 [compound 170]
13 | < 25 | CC[C@H]1CN(c2nc(N)c(C(=O)NCCO)nc2C)CCN1C1CCN(C(=O)c2ccc(Cl)nc2N)CC1 [compound 171]
14 | < 25 | CC[C@H]1CN(c2nc(N)c(C(=O)OC)nc2Cl)[C@H](C)CN1C1CCN(C(=O)c2ccc(Cl)nc2N)CC1 [compound 172]
15 | < 25 | CC[C@H]1CN(c2ncc(C(=O)NC)nc2C(F)(F)F)CCN1C1CCN(C(=O)c2ccc(Cl)nc2N)CC1 [compound 173]
16 | < 25 | CC[C@H]1CN(c2ncc(C(=O)NC3(C)CC3)nc2C)[C@H](C)CN1C1CCN(C(=O)c2ccc(Cl)nc2N)CC1 [compound 174]
17 | < 25 | CC[C@H]1CN(c2nc(N)c(C(=O)NC3CC3)nc2C)[C@H](C)CN1C1CCN(C(=O)c2ccc(Cl)nc2N)CC1 [compound 175]
18 | < 25 | CC[C@H]1CN(c2ncc(C(=O)NC3CC3)nc2C)CCN1C1CCN(C(=O)c2ccc(C(F)(F)F)nc2N)CC1 [compound 176]
19 | < 25 | CC[C@H]1CN(c2nc(N)c(C(=O)NC3CC3)nc2Cl)[C@H](C)CN1C1CCN(C(=O)c2ccc(Cl)nc2N)CC1 [compound 177]
20 | < 25 | CC[C@H]1CN(c2ncc(C(=O)NC3CC3)nc2C(F)(F)F)CCN1C1CCN(C(=O)c2ccc(Cl)nc2N)CC1 [compound 178]
21 | < 25 | CC[C@H]1CN(c2ncc(C(=O)NC(C)C)nc2C(F)(F)F)CCN1C1CCN(C(=O)c2ccc(Cl)nc2N)CC1 [compound 179]
22 | < 25 | CC[C@H]1CN(c2ncc(C(=O)NCCO)nc2C(F)(F)F)CCN1C1CCN(C(=O)c2ccc(Cl)nc2N)CC1 [compound 180]
23 | < 25 | CC[C@H]1CN(c2ncc(C(=O)NC3CCC3)nc2C(F)(F)F)CCN1C1CCN(C(=O)c2ccc(Cl)nc2N)CC1 [compound 181]
